Laboratory results reported in PubChem BioAssay (NCI).
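Five concentrations, 48 hours, 96-well plates. Abbreviation: GI50, concentration required for 50% inhibition of growth. At the TGI there is no net growth.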

How the values were obtained:
Test in all cases: DTP human tumour cell line panel, 48 h
[1] = test system: SNB-75 CNS
[2] = test system: SN12C renal
[3] = test system: COLO 205 colon
[4] = test system: LOX IMVI melanoma
[5] = test system: HS 578T breast
[6] = test system: RPMI-8226 leukemia
[7] = test system: HOP-92 NSCLC
[8] = test system: HCT-15 colon
[9] = test system: TK-10 renal
[10] = test system: IGROV1 ovarian

For `Cc1ccc(S(=O)(=O)N(CC(O)COc2ccccc2)c2ccc(F)cc2F)cc1` (centres undefined), the TGI [1] was 29.4 µM, the TGI [2] was 34.2 µM and the TGI [3] was 28.6 µM. The TGI [4] was 27.3 µM, the TGI [5] was 39.9 µM and the TGI [6] was 34.5 µM. For the same compound, the TGI [7] was 12.4 µM, the TGI [8] was 30.8 µM and the TGI [9] was 45.9 µM.
For `O=c1cc(NCc2ccncc2)[nH]c(=O)[nH]1`, the TGI [1] was > 100 µM, the TGI [2] was > 100 µM and the TGI [10] was > 100 µM. The TGI [3] was > 100 µM, the TGI [4] was > 100 µM and the TGI [5] was > 100 µM. The TGI [6] was > 100 µM, the TGI [7] was > 100 µM and the TGI [8] was > 100 µM. For the same compound, the TGI [9] was > 100 µM.
For `CCN(CC)c1nc(N(C)C)c2ccccc2n1`, the TGI [1] was > 100 µM, the TGI [2] was > 100 µM and the TGI [10] was > 100 µM. The TGI [3] was 83.3 µM, the TGI [4] was > 100 µM and the TGI [5] was > 100 µM. The TGI [6] was 40.6 µM, the TGI [7] was > 100 µM and the TGI [8] was > 100 µM. The TGI [9] was > 100 µM.
With `CC1OC2OC3C(OCC(O)C3O)OC(=O)[C@]34CCC(C)(C)CC3C3=CCC5[C@@]6(C)C[C@H](O)[C@H](OC7OC(CO)C(O)C(O)C7OC7OCC(OC(=O)CC(C)(O)CC(=O)OC1C(OC1OC(CO)C(O)C(O)C1O)C2O)C(O)C7O)[C@@](C)(CO)C6CC[C@@]5(C)[C@]3(C)CC4` (some centres undefined) the TGI [1] was 22.9 µM, the TGI [2] was 23.3 µM and the TGI [10] was 16.2 µM. For the same compound, the TGI [3] was 7.61 µM, the TGI [4] was 20.6 µM and the TGI [5] was 30.1 µM. It also gave a TGI [6] of 25.2 µM, a TGI [7] of 21.6 µM and a TGI [8] of 22.5 µM. For the same compound, the TGI [9] was 21.1 µM.
`CCOC(=O)C(=O)C(=O)NN(C)C1=NCCN1` was tested, and the TGI [1] was > 100 µM, the TGI [2] was > 100 µM and the TGI [10] was > 100 µM. The TGI [3] was > 100 µM, the TGI [4] was > 100 µM and the TGI [5] was > 100 µM. For the same compound, the TGI [6] was > 100 µM, the TGI [7] was > 100 µM and the TGI [8] was > 100 µM. The TGI [9] was > 100 µM.
For `CC(C)C(=O)Oc1cc2c(=O)oc3c(OC(=O)C(C)C)c(OC(=O)C(C)C)cc4c(=O)oc(c1OC(=O)C(C)C)c2c34`, the TGI [1] was > 100 µM, the TGI [2] was > 100 µM and the TGI [10] was > 100 µM. For the same compound, the TGI [3] was > 100 µM, the TGI [4] was > 100 µM and the TGI [5] was > 100 µM. For the same compound, the TGI [6] was > 100 µM, the TGI [7] was > 100 µM and the TGI [8] was > 100 µM. For the same compound, the TGI [9] was > 100 µM.
For `COc1ccc(C(O)CC(O)(C(F)(F)F)C(F)(F)F)cc1` (centres undefined), the TGI [1] was 34.3 µM, the TGI [2] was 60.8 µM and the TGI [10] was 84.4 µM. It also gave a TGI [3] of 33.8 µM, a TGI [4] of 36 µM and a TGI [5] of 61.7 µM. The TGI [6] was 57.2 µM, the TGI [7] was 44.4 µM and the TGI [8] was > 100 µM. For the same compound, the TGI [9] was > 100 µM.
`C=C1C(=O)O[C@H]2[C@H]3O[C@@H](C[C@@H]12)[C@](C)(O)CC[C@@H]1O[C@@]1(C)CCC[C@H]3C` was tested, and the TGI [1] was 96.1 µM, the TGI [2] was 65.2 µM and the TGI [10] was 46.2 µM. The TGI [3] was 30 µM, the TGI [4] was 35.7 µM and the TGI [5] was > 100 µM. The TGI [6] was > 100 µM, the TGI [7] was 36.4 µM and the TGI [8] was 37.9 µM. It also gave a TGI [9] of 32.6 µM.
`C(/Cc1ccc2c(c1)OCO2)=N\NC1=NCCCN1` was tested, and the TGI [1] was 81.1 µM, the TGI [2] was > 100 µM and the TGI [10] was > 100 µM. For the same compound, the TGI [3] was > 100 µM, the TGI [4] was > 100 µM and the TGI [5] was > 100 µM. For the same compound, the TGI [6] was > 100 µM, the TGI [7] was > 100 µM and the TGI [8] was > 100 µM. The TGI [9] was > 100 µM.
In the case of `CCCNc1ncnc2[nH]ncc12`, the TGI [1] is reported as > 100 µM, the TGI [2] is reported as > 100 µM and the TGI [10] is reported as > 100 µM. For the same compound, the TGI [3] was > 100 µM, the TGI [4] was > 100 µM and the TGI [5] was > 100 µM. For the same compound, the TGI [6] was > 100 µM, the TGI [7] was > 100 µM and the TGI [8] was > 100 µM. The TGI [9] was > 100 µM.
In the case of `Cc1ccc(/C(O)=C/c2nc3ccc([N+](=O)[O-])cc3nc2/C=C(\O)c2ccc(C)cc2)cc1`, the TGI [1] is reported as 36.8 µM, the TGI [2] is reported as > 100 µM and the TGI [10] is reported as > 100 µM. For the same compound, the TGI [3] was > 100 µM, the TGI [4] was > 100 µM and the TGI [5] was > 91.4 µM. The TGI [6] was > 100 µM, the TGI [7] was > 100 µM and the TGI [8] was > 100 µM. For the same compound, the TGI [9] was > 100 µM.
`CC(=O)Nc1cc(Nc2cc(=O)[nH]c(=O)[nH]2)ccc1C` was tested, and the TGI [1] was > 100 µM, the TGI [2] was > 100 µM and the TGI [10] was > 100 µM. For the same compound, the TGI [3] was > 100 µM, the TGI [4] was > 100 µM and the TGI [5] was > 100 µM. The TGI [6] was > 100 µM, the TGI [7] was > 100 µM and the TGI [8] was > 100 µM. The TGI [9] was > 100 µM.
For `CC(C)(C)OC(=O)n1cc(C2CN(O)C(=O)C23CCC(=O)N3Cc2ccccc2)c2ccccc21` (centres undefined), the TGI [1] was > 100 µM, the TGI [2] was 81.8 µM and the TGI [10] was 48.5 µM. The TGI [3] was > 100 µM, the TGI [4] was 55.3 µM and the TGI [5] was > 100 µM. The TGI [6] was 93.5 µM, the TGI [7] was 50.8 µM and the TGI [9] was > 100 µM.
`O=C1CC(n2cccc2)c2c(Br)sc(Br)c21` (centres undefined) showed a TGI [1] of 35.1 µM, a TGI [2] of 31.1 µM and a TGI [10] of 32.7 µM. For the same compound, the TGI [3] was 30.7 µM, the TGI [4] was 21.7 µM and the TGI [5] was > 72.3 µM. The TGI [6] was 27.4 µM, the TGI [7] was 33.1 µM and the TGI [8] was 30.7 µM. For the same compound, the TGI [9] was 45.4 µM.
`CN(C)c1ccc(/C=C2\N=C(c3ccccc3)N(c3ccc4c(c3)Sc3cc(N5C(=O)/C(=C/c6ccc(N(C)C)cc6)N=C5c5ccccc5)ccc3N4)C2=O)cc1` gave a TGI [1] of 27.4 µM, a TGI [2] of 38.9 µM and a TGI [10] of 32 µM. For the same compound, the TGI [3] was > 100 µM, the TGI [4] was 40.9 µM and the TGI [5] was 72.7 µM. For the same compound, the TGI [6] was 51.4 µM, the TGI [7] was 35.1 µM and the TGI [8] was > 100 µM. The TGI [9] was 31.1 µM.
`CC(C)OC1OC(CO)C(O)CC1n1cc(F)c(=O)[nH]c1=O` (centres undefined) was tested, and the TGI [1] was > 100 µM, the TGI [2] was > 100 µM and the TGI [10] was > 100 µM. For the same compound, the TGI [3] was > 100 µM, the TGI [4] was > 100 µM and the TGI [5] was > 100 µM. The TGI [6] was > 100 µM, the TGI [7] was > 100 µM and the TGI [8] was > 100 µM. The TGI [9] was > 100 µM.
`CO[C@]1(CN2CCN3CCCC[C@@H]3C2)/C=C/C[C@H](C)[C@@H](C)S(=O)(=O)NC(=O)c2ccc3c(c2)N(C[C@@H]2CC[C@H]21)C[C@@]1(CCCc2cc(Cl)ccc21)CO3` gave a GI50 [1] of 0.371 µM, a TGI [1] of 2.04 µM and a GI50 [2] of 1.6 µM. The TGI [2] was 3.08 µM, the GI50 [5] was 1.18 µM and the TGI [5] was 3.57 µM. For the same compound, the GI50 [6] was 0.0185 µM, the TGI [6] was 41.8 µM and the GI50 [7] was 1.67 µM. The TGI [7] was 3.46 µM, the GI50 [9] was 2.33 µM and the TGI [9] was 6.39 µM.
For `S=C(NCc1ccccc1)N/N=C/c1ccccn1`, the TGI [1] was 47.8 µM, the TGI [2] was > 100 µM and the TGI [10] was > 62.8 µM. For the same compound, the TGI [3] was > 100 µM, the TGI [4] was 21.5 µM and the TGI [5] was > 100 µM. For the same compound, the TGI [6] was 2.33 µM, the TGI [7] was 52.7 µM and the TGI [8] was > 40.5 µM. For the same compound, the TGI [9] was > 100 µM.
With `O=[N+]([O-])c1cccnc1-n1cnc2ccccc21` the TGI [1] was > 100 µM, the TGI [10] was > 100 µM and the TGI [3] was > 100 µM. The TGI [4] was > 100 µM, the TGI [5] was > 100 µM and the TGI [6] was > 100 µM. For the same compound, the TGI [7] was > 100 µM, the TGI [8] was > 100 µM and the TGI [9] was > 100 µM.
In the case of `O=[N+]([O-])c1ccc(C(Nc2ccccc2)c2ccc3cccnc3c2O)cc1` (centres undefined), the TGI [1] is reported as 55.5 µM, the TGI [2] is reported as > 56.2 µM and the TGI [10] is reported as > 100 µM. For the same compound, the TGI [3] was 45.6 µM, the TGI [4] was 61 µM and the TGI [5] was > 71.7 µM. For the same compound, the TGI [6] was 38.5 µM, the TGI [7] was 72.9 µM and the TGI [8] was > 100 µM. It also gave a TGI [9] of 68.8 µM.
